Where no end group is shown, it is not given here. [ ]: non-standard residue; d: D form. Cit = NC(=O)NCCC[C@H](N)C(=O)O
Key:
Assay in all cases: REVEAL binding assay
Settings in all cases: score as percentage of the signal generated by the positive control peptide
HLA-A29 = system: HLA-A29
HLA-B14 = system: HLA-B14
HLA-A1 = system: HLA-A1
Text: (§5) The REVEAL™ binding assay determined the ability of each candidate peptide to bind to one or more MHC class I alleles and stabilizing the MHC-peptide complex. […] Detection is based on the presence or absence of the native conformation of the MHC-peptide complex. Each peptide is given a score relative to the positive control peptide, which is a known T cell epitope.

HLA-B35 = system: HLA-B35
HLA-B15 = system: HLA-B15
HLA-B40 = system: HLA-B40
Experimental: (§1) Binding properties to HLA for the ninemers listed in table 6 were tested for the following HLA-classes:
(§2) HLA-A1, HLA-A2, HLA-A3, HLA-A11, HLA-A24, HLA-A29, HLA-B7, HLA-B8, HLA-B14, HLA-B15, HLA-B27, HLA-B35, HLA-B40.
The peptides were synthesized as a Prospector PEPscreen®: Custom Peptide Library. Peptides 8-15 amino acids in length were synthesized in 0.5-2 mg quantities with high average purity. Quality control by MALDI-TOF Mass Spectrometry was carried out on 100% of samples.
The REVEAL™ binding assay determined the ability of each candidate peptide to bind to one or more MHC class I alleles and stabilizing the MHC-peptide complex. By comparing the binding to that of high and intermediate affinity T cell epitopes, the most likely immunogenic peptides in a protein sequence can be identified. Detection is based on the presence or absence of the native conformation of the MHC-peptide complex. Each peptide is given a score relative to the positive control peptide, which is a known T cell epitope. The score of the test peptide is reported quantitatively as a percentage of the signal generated by the positive control peptide, and the peptide is indicated as having a putative pass or fail result. Assay performance is confirmed by including an intermediate control peptide that is known to bind with weaker affinity to the allele under investigation.

HLA-A24 = system: HLA-A24
HLA-B8 = system: HLA-B8
Text: as §5

HLA-A3 = HLA-A3 (Homo sapiens, UniProt P04439)
Chain of HLA-A3 (P04439 25-299): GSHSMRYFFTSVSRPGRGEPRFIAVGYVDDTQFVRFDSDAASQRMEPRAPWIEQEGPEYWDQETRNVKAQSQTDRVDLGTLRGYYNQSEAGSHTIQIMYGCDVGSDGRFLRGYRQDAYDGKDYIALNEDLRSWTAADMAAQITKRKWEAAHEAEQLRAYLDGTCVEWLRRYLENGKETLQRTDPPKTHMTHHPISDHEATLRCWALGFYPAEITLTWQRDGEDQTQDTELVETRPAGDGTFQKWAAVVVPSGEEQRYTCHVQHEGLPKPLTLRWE
Chain of HLA-A3 (P61769 21-119, further chain): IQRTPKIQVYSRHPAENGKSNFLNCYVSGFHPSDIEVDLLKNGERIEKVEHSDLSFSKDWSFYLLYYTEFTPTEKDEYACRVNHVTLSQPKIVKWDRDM
Experimental: as §1, §2
(§3) The peptides were synthesized as a Prospector PEPscreen®: Custom Peptide Library. […] Quality control by MALDI-TOF Mass Spectrometry was carried out on 100% of samples.
(§4) The REVEAL™ binding assay determined the ability of each candidate peptide to bind to one or more MHC class I alleles and stabilizing the MHC-peptide complex. By comparing the binding to that of high and intermediate affinity T cell epitopes, the most likely immunogenic peptides in a protein sequence can be identified. Detection is based on the presence or absence of the native conformation of the MHC-peptide complex. Each peptide is given a score relative to the positive control peptide, which is a known T cell epitope.

HLA-B7 = HLA-B7 (Homo sapiens, UniProt P01889)
Chain of HLA-B7 (P61769 21-119): as the sequence (P61769 21-119, further chain) above
Chain of HLA-B7 (P01889 25-299): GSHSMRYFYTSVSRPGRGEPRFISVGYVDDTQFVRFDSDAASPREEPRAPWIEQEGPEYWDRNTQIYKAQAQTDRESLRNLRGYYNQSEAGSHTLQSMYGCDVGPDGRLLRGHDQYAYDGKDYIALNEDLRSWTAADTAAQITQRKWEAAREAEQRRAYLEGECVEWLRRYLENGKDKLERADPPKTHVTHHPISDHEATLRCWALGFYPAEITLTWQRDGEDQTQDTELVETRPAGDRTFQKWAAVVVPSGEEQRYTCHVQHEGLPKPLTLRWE
Experimental: as §1, §2, §3, §4

HLA-A2 = HLA-A2 (Homo sapiens, UniProt P04439, D140Y/D185E/D98H/E176V/E277Q/G131W/G231S/I119V/I121R/I166T/I218V/N151K/N90K/P208A/P217A/Q86G/Q94H/R138H/R169H)
Experimental: as §1, §2, §3, §4

HLA-A11 = HLA-A11 (Homo sapiens, UniProt P04439, A114D/F33Y/S129P)
Experimental: as §1, §2, §3, §4

HLA-B27 = HLA-B27 (Homo sapiens, UniProt P01889, D138H/D201E/E176V/E204Q/G107R/H137Y/K202T/N104T/N87E/Q56L/Q94K/R106L/R155S/R180L/S101D/S121N/S48T/Y140D/Y33H/Y91C)
Experimental: as §1, §2, §3, §4

Substance	REVEAL binding score, HLA-type A29 (HLA-A29) [%]	REVEAL binding score, HLA-type B14 (HLA-B14) [%]	REVEAL binding score, HLA-type A1 (HLA-A1) [%]	REVEAL binding score, HLA-type B35 (HLA-B35) [%]	REVEAL binding score, HLA-type B15 (HLA-B15) [%]	REVEAL binding score, HLA-type B40 (HLA-B40) [%]	REVEAL binding score, HLA-type A24 (HLA-A24) [%]	REVEAL binding score, HLA-type B8 (HLA-B8) [%]	REVEAL binding score, HLA-type A3 (HLA-A3) [%]	REVEAL binding score, HLA-type B7 (HLA-B7) [%]	REVEAL binding score, HLA-type A2 (HLA-A2) [%]	REVEAL binding score, HLA-type A11 (HLA-A11) [%]	REVEAL binding score, HLA-type B27 (HLA-B27) [%]
GKVIDTLTC	14.26	0.16	14.77	3.11	7.31	19.45	0.41	13.63	3.69	0.25	4.89	3.96	0.84
GNIPGSTYS	24.38	0.34	7.54	7.86	4.80	55.59	0.00	6.32	5.04	0.94	5.07	1.54	1.58
GNLPGCSFS	13.48	0.81	6.44	4.80	3.96	80.68	1.13	8.71	3.54	1.84	6.11	2.41	13.44
GP[Cit]IGVRAT	11.88	0.13	18.60	2.25	7.29	19.61	0.16	9.99	3.48	5.38	9.16	2.72	0.59
GQIIGGNYL	14.17	0.22	20.65	2.60	173.66	31.55	0.47	11.90	3.01	2.39	12.96	2.77	0.64
GQIVGGVYL	13.73	0.37	15.07	3.24	182.45	24.20	0.50	14.53	4.80	6.56	55.85	4.46	1.01
GRVIETLTS	15.59	0.20	14.42	3.56	8.31	38.91	0.88	12.91	12.46	1.25	5.26	27.62	1.05
